Key:
[1] = molecular target: Human recombinant monoamine oxidase MAO-A (Homo sapiens (Human), UniProt P21397); assay: Monoamine oxidase assay (kynuramine to 4-hydroxyquinoline fluorescence), MAO-A; assay type: biochemical
Text: (§1) Human recombinant monoamine oxidase proteins MAO-A and MAO-B were purchased from Sigma Aldrich. MAOs catalyze the oxidative deamination of primary, secondary and tertiary amines. In order to monitor MAO enzymatic activities and/or their inhibition rate by inhibitor(s) of interest, a fluorescence-based (inhibitor)-screening assay was set up. 3-(2-Aminophenyl)-3-oxopropanamine (kynuramine dihydrobromide, Sigma Aldrich), a non fluorescent compound was chosen as a substrate. Kynuramine is a non-specific substrate for both MAO-A and MAO-B activities. While undergoing oxidative deamination by MAO activities, kynuramine is converted into 4-hydroxyquinoline (4-HQ), a resulting fluorescent product.
(§2) The monoamine oxidase activity was estimated by measuring the conversion of kynuramine into 4-hydroxyquinoline. Assays were conducted in 96-well black plates with clear bottom (Corning) in a final volume of 100 μL. The assay buffer was 100 mM HEPES, pH 7.5. Each experiment was performed in duplicate within the same experiment.
(§3) Clorgyline and Deprenyl (Sigma Aldrich) was used as a control for specific inhibition of MAO-A and MAO-B respectively. […]
(§4) The IC50 values of each inhibitor were calculated with GraphPad Prism Software.

[2] = molecular target: Human recombinant monoamine oxidase MAO-B (Homo sapiens (Human), UniProt P27338); assay: Monoamine oxidase assay (kynuramine to 4-hydroxyquinoline fluorescence), MAO-B; assay type: biochemical
Chain of Human recombinant monoamine oxidase MAO-B (P27338 whole entry): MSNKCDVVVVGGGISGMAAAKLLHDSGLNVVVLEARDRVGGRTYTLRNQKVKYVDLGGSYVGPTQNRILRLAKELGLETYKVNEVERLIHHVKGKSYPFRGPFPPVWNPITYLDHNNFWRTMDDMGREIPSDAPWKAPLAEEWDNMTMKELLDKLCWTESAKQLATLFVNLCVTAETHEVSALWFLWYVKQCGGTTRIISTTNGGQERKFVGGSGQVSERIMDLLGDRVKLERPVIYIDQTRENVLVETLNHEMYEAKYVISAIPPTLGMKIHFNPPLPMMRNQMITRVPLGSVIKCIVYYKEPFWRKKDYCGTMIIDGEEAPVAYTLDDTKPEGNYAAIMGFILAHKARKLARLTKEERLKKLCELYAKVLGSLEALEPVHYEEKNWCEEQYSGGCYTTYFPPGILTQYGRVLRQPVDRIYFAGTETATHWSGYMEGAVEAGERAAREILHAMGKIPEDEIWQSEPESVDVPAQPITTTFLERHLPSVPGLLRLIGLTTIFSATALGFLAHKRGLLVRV
Text: as §1, §2, §3, §4

[3] = molecular target: Human recombinant LSD1 protein (Homo sapiens (Human), UniProt O60341); assay: Inhibition of LSD1 (Amplex Red H2O2 release, di-methylated H3-K4 peptide substrate)

Chain of Human recombinant monoamine oxidase MAO-A (P21397 whole entry): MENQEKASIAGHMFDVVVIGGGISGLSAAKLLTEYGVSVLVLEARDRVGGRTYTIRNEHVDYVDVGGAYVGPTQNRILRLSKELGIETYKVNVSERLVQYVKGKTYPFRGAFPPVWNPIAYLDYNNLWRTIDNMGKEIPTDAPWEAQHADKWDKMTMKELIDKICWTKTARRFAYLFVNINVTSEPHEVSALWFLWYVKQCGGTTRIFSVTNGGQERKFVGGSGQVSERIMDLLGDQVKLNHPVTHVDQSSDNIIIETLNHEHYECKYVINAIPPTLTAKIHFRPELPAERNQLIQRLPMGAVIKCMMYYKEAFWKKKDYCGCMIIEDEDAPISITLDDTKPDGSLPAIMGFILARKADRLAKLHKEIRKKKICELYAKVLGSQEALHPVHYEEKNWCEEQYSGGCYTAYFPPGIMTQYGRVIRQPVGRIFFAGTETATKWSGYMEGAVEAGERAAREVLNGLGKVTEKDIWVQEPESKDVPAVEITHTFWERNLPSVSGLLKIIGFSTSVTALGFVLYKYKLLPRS

Oc1ccc(C2CC2NC2CCNCC2)cc1 (stereo not drawn) [Example 23, 4-(2-(piperidin-4-ylamino)cyclopropyl)phenol]
IC50 [1]: > 100 µM | IC50 [2]: > 100 µM | IC50 [3]: ~100 µM

Source: patent publication US9487512B2, “(Hetero)aryl cyclopropylamine compounds as LSD1 inhibitors” (ORYZON GENOMICS, S.A., priority 2011, dated 2016)
